“Also recorded” adds a separate entry of the source.
Columns and labels:
[1] = system: normal human dermal fibroblasts (HF 250); assay: Pilot study: collagen produced by fibroblast cultures, pepsin extraction and SDS-PAGE of collagen α chains; format: cell-based; details: 0, 1, 3, 10 or 30 μg/ml tested, 24 hours, ascorbate 50 μg/ml, Coomassie-stained SDS-PAGE; data not shown
Procedure: (§1) A primary cell line of normal human dermal fibroblasts (HF 250) was derived from the outgrowth of cells from explants of discarded foreskin. Fibroblasts were maintained in Dulbecco's modification of Eagles medium (DMEM) supplemented with 10% fetal bovine serum (FBS). Cells were grown to confluence and passed 1:1 by trypsinization. HF 250 cells were used between their 5th and 7th passages.
(§2) To optimize collagen synthesis and processing by cultured fibroblasts, the culture medium was supplemented with 50 μg/ml of vitamin C as L-ascorbic acid 2-phosphate sesquimagnesium salt (Sigma Chemical Co., St. Louis, Mo.). Oxandrolone was the anabolic steroid tested, and it was supplied by Bio-Technology General Corp., Iselin, N.J. A stock solution of oxandrolone was made in a 10% dimethyl-sulfoxide solution.
An initial pilot study was conducted to determine the concentration of anabolic steroid that would maximize collagen synthesis, as follows. After fibroblast cultures became confluent in 2 days, the culture medium was replaced with a medium supplemented with ascorbate at 50 μg/ml. To each dish, a different concentration of oxandrolone was added (0, 1, 3, 10 or 30 μg/ml). Dishes were incubated for 24 hours in a water saturated atmosphere at 37° in 95% air, 5% CO2. […]

[2] = system: type III procollagen mRNA; assay: Northern blot of type III procollagen mRNA in HF 250 fibroblasts grown on collagen or plastic; format: cell-based, human; details: 3 μg/ml, 24 hours, vs 10% dimethyl sulfoxide alone; for increase of type III procollagen mRNA expression (ratio to GAPDH mRNA density) relative to control: fibroblasts grown on collagen; for expression of type III procollagen mRNA relative to control: fibroblasts grown on plastic
Procedure: as §1
(§3) Acid-soluble collagen was isolated from rat tail tendons by acetic acid extraction. Briefly, rat tail tendons were teased from adult rat tails and stirred in ice cold 0.5 M acetic acid for 2 days. The solubilized collagen was cleared by centrifugation and the supernatant made 10% in respect to NaCl w/v. The precipitated collagen was collected by centrifugation, resuspended in 1 mM HCl, dialyzed exhaustively against 1 mM HCl, frozen, lyophilized, weighed, resuspended in sterile ice cold 1 mM HCl at 5 mg/ml and stored at 4° C. until needed. The bottoms of 10 cm Petri dishes were covered with cold, sterile collagen solution. Any free collagen solution was removed with a Pasteur pipette and the coated dishes placed in a 37° C. incubator, where they were incubated overnight to allow complete polymerization of the collagen-coated surface.
as §2
(§4) Equal numbers of fibroblasts were plated onto tissue culture plastic dishes or collagen-coated Petri dishes. Four confluent 10 cm dishes of HF 250 cells were split in half and the cells replated in four 10 cm collagen-coated and four uncoated dishes. Two collagen-coated dishes and two uncoated dishes received 3 μg/ml of oxandrolone. The two remaining collagen-coated and uncoated dishes received an equal volume of 10% dimethyl-sulfoxide alone. After 24 hours of incubation, the medium was removed and the dishes rinsed with phosphate buffered saline. Northern blot analysis was used to determine the levels of both type I and type III procollagen mRNA expression. Total RNA was extracted from culture cells, using the Total RNA Isolation kit (Ambion, Inc; Austin, Tex.) following the supplier's instructions. […]
(§5) Total extracted RNA was subjected to agarose gel electrophoresis and blotted on a nylon membrane. […] The x-ray film was developed and quantitative analysis done by densitometry. […] The quantities of type I and type III procollagen α1 mRNAs and GAPDH mRNA were determined by densitometry. […]

type I procollagen mRNA = assay: Northern blot of type I procollagen mRNA in HF 250 fibroblasts grown on collagen or plastic; format: cell-based, human; details: 3 μg/ml, 24 hours, vs 10% dimethyl sulfoxide alone; for expression of type I procollagen mRNA (ratio to GAPDH mRNA density) relative to control: fibroblasts grown on collagen; for expression of type I procollagen mRNA relative to control: fibroblasts grown on plastic
Procedure: as §1, §3, §2, §4, §5

HF 250 cells = assay: Cell number and morphology of fibroblasts grown on collagen or plastic; format: cell-based, human; details: 3 μg/ml, 24 hours
Procedure: Equal numbers of fibroblasts were plated onto tissue culture plastic dishes or collagen-coated Petri dishes. Four confluent 10 cm dishes of HF 250 cells were split in half and the cells replated in four 10 cm collagen-coated and four uncoated dishes. Two collagen-coated dishes and two uncoated dishes received 3 μg/ml of oxandrolone. The two remaining collagen-coated and uncoated dishes received an equal volume of 10% dimethyl-sulfoxide alone. After 24 hours of incubation, the medium was removed and the dishes rinsed with phosphate buffered saline. Northern blot analysis was used to determine the levels of both type I and type III procollagen mRNA expression. Total RNA was extracted from culture cells, using the Total RNA Isolation kit (Ambion, Inc; Austin, Tex.) following the supplier's instructions. Type I and type III procollagen cDNAs were purchased from American Type Culture Collection (Manassas, Va.). The human α1 (I) (HF677) and α1 (III) (HF934) procollagen cDNAs were enzymatically cleaved, purified, and subsequently end-labeled with ^32P dCTP (New England Nuclear, Boston, Mass.) to generate specific cDNA probes.
By 24 hours, the density of cells on the plastic surface appeared greater than the density of cells grown on collagen. […] See, e.g., Greco and Ehrlich (1992).

**Q.** How did the “concentration giving the maximal intensity of collagen α chain staining” value [1] turn out when C[C@]12COC(=O)C[C@@H]1CC[C@@H]1[C@@H]2CC[C@@]2(C)[C@H]1CC[C@]2(C)O [Oxandrolone, 17-methyl-17-hydroxy-2-oxa-5-androstan-3-one] was run?
**A.** 3 µg/mL

**Q.** And the “increase of type III procollagen mRNA expression (ratio to GAPDH mRNA density) relative to control” value [2]?
**A.** enhanced

**Q.** What about the “increase of type III procollagen mRNA expression (ratio to GAPDH mRNA density) relative to control” value ([2]; listed as oxandrolone) of the same compound?
**A.** 11 fold

**Q.** And the “expression of type III procollagen mRNA relative to control” value [2]?
**A.** enhanced

**Q.** And the “expression of type III procollagen mRNA relative to control” value ([2]; listed as oxandrolone)?
**A.** minimal change; also recorded: minimal effect

**Q.** What about the “expression of type I procollagen mRNA (ratio to GAPDH mRNA density) relative to control” value (type I procollagen mRNA) of the same compound?
**A.** doubled; also recorded: increased

**Q.** What about the “expression of type I procollagen mRNA (ratio to GAPDH mRNA density) relative to control” value (type I procollagen mRNA; listed as oxandrolone) of the same compound?
**A.** doubles

**Q.** What about the “expression of type I procollagen mRNA relative to control” value (type I procollagen mRNA) of the same compound?
**A.** did not noticeably change; also recorded: minimal effect

**Q.** What about the “expression of type I procollagen mRNA relative to control” value (type I procollagen mRNA; listed as oxandrolone) of the same compound?
**A.** minimal change

**Q.** And the cell morphology (HF 250 cells)?
**A.** no obvious difference

**Q.** What about the number of fibroblasts (HF 250 cells) of the same compound?
**A.** did not affect

Source: patent US20070099881A1, “Method of treating wounds by enhancing expression of procollagen” (priority 2001, published 2007)
